Reference: patent US20170334899A1, “AMINO-SUBSTITUTED ISOTHIAZOLES” (Bayer Pharma Aktiengesellschaft, priority 2014, published 2017)
Blank lines part the entries; values can stand above or below the molecule they belong to.

Assays:
[1] = test system: human cervical tumor cell line HeLa (ATCC CCL-2); assay: SAC-Formation - Nocodazole-Induced Assay; assay type: cell-based; conditions: Homo sapiens, HeLa, 24 h, HeLa cells, nocodazole 0.1 μg/ml together with test compound, decrease of mitotic cells (phospho-histone H3 Ser10)
Summary of the method: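 HeLa cells, plated overnight, were treated 24 h at 37 °C with nocodazole (0.1 μg/ml final) plus test compound (0.005–20 μM, 0.5% DMSO) added at the same time. After fixation, anti-phospho-histone H3 Ser10 and Hoechst staining gave the mitotic cell fraction by imaging. Values came from four-parameter Hill fits.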

[2] = test system: human cervical tumor cell line HeLa (ATCC CCL-2); assay: SAC-Formation - Paclitaxel-Induced Assay; assay type: cell-based; conditions: 24 h, HeLa cells, paclitaxel 0.05 μM, test range 0.005 μM-20 μM, read-out: IC50 [mol/l] SAC-Formation - Paclitaxel-Induced Assay
Summary of the method: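 HeLa cells incubated overnight at 37° C, then given paclitaxel (0.05 μM final) plus test compound (0.005–20 μM, 0.5% DMSO) together for 24 h at 37° C. Fixed cells stained for phospho-histone H3 Ser10 (mitotic cells) and Hoechst 33342 (cell count); imaging-derived mitotic index fitted by four-parameter Hill equation.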

IC50 [1]: 81 nM
IC50 ([2]; Homo sapiens, HeLa): 59 nM
Structure (SMILES): Cc1nsc(Nc2cnc(C(F)(F)F)cn2)c1C(=O)Nc1ccc(F)c(OC[C@H]2CCCN(CC(F)F)C2)c1 [Example 400, N-(3-{[(3S)-1-(2,2-difluoroethyl)piperidin-3-yl]methoxy}-4-fluorophenyl)-3-methyl-5-{[5-(trifluoromethyl)pyrazin-2-yl]amino}-1,2-thiazole-4-carboxamide]

IC50 [1]: 1200 nM
IC50 ([2]; Homo sapiens, HeLa): 3400 nM
Structure (SMILES): Cc1nsc(Nc2cnc(C(F)(F)F)cn2)c1C(=O)Nc1ccc(OCC2CCN(CCC(F)(F)F)CC2(F)F)nc1 (stereo not drawn) [Example 402, N-(6-{[3,3-difluoro-1-(3,3,3-trifluoropropyl)piperidin-4-yl]methoxy}pyridin-3-yl)-3-methyl-5-{[5-(trifluoromethyl)pyrazin-2-yl]amino}-1,2-thiazole-4-carboxamide]

IC50 [1]: 30 nM
IC50 [2]: 42 nM
IC50 ([2]; Homo sapiens, HeLa): 27 nM
Structure (SMILES): Cc1nsc(Nc2cnc(C(F)(F)F)cn2)c1C(=O)Nc1ccc(F)c(OC[C@@H]2CCN(CC(F)F)C2)c1 [Example 403, N-(3-{[(3R)-1-(2,2-difluoroethyl)pyrrolidin-3-yl]methoxy}-4-fluorophenyl)-3-methyl-5-{[5-(trifluoromethyl)pyrazin-2-yl]amino}-1,2-thiazole-4-carboxamide]

IC50 [1]: 63 nM
IC50 ([2]; Homo sapiens, HeLa): 20 nM
Structure (SMILES): Cc1nsc(Nc2cnc(C(F)(F)F)cn2)c1C(=O)Nc1ccc(OC[C@H]2CCN(CC(F)(F)F)C2)nc1 [Example 404, 3-Methyl-N-(6-{[(3S)-1-(2,2,2-trifluoroethyl)pyrrolidin-3-yl]methoxy}pyridin-3-yl)-5-{[5-(trifluoromethyl)pyrazin-2-yl]amino}-1,2-thiazole-4-carboxamide]

IC50 [1]: 33 nM
IC50 ([2]; Homo sapiens, HeLa): 49 nM
Structure (SMILES): CCN1CCC(Oc2ccc(NC(=O)c3c(C)nsc3Nc3cnc(C(F)(F)F)cn3)cn2)C(F)(F)C1 (stereo not drawn) [Example 406, N-{6-[(1-Ethyl-3,3-difluoropiperidin-4-yl)oxy]pyridin-3-yl}-3-methyl-5-{[5-(trifluoromethyl)pyrazin-2-yl]amino}-1,2-thiazole-4-carboxamide]

IC50 [1]: 39 nM
IC50 ([2]; Homo sapiens, HeLa): 79 nM
Structure (SMILES): Cc1nsc(Nc2cnc(C(F)(F)F)cn2)c1C(=O)Nc1ccc(OCCN2CCC(F)(F)CC2)nc1 [Example 407, N-{6-[2-(4,4-Difluoropiperidin-1-yl)ethoxy]pyridin-3-yl}-3-methyl-5-{[5-(trifluoromethyl)pyrazin-2-yl]amino}-1,2-thiazole-4-carboxamide]

More lines, now with the values behind:

Structure (SMILES): Cc1nsc(Nc2cnc3ccccc3n2)c1C(=O)Nc1cccc(C(=O)NCC(=O)OC(C)(C)C)c1 [Example 54, tert-Butyl N-[3-({[3-methyl-5-(quinoxalin-2-ylamino)-1,2-thiazol-4-yl]carbonyl}amino)-benzoyl]glycinate]
IC50 [1]: 990 nM
IC50 ([2]; Homo sapiens, HeLa): 1300 nM

Structure (SMILES): Cc1nsc(Nc2cnc3ccccc3n2)c1C(=O)Nc1cccc(C(=O)N2CCN(C(=O)OC(C)(C)C)CC2)c1 [Example 55, tert-Butyl 4-[3-({[3-methyl-5-(quinoxalin-2-ylamino)-1,2-thiazol-4-yl]carbonyl}amino)-benzoyl]piperazine-1-carboxylate]
IC50 [1]: 930 nM
IC50 ([2]; Homo sapiens, HeLa): 3100 nM

Structure (SMILES): Cc1nsc(Nc2cnc3ccccc3n2)c1C(=O)Nc1cccc(C(=O)N[C@@H](CCC(N)=O)C(=O)OC(C)(C)C)c1 [Example 56, tert-butyl N^2-[3-({[3-methyl-5-(quinoxalin-2-ylamino)-1,2-thiazol-4-yl]carbonyl}amino)-benzoyl]glutaminate]
IC50 [1]: 1200 nM
IC50 ([2]; Homo sapiens, HeLa): 4300 nM

Structure (SMILES): Cc1nsc(Nc2cnc3ccccc3n2)c1C(=O)Nc1cccc(C(=O)N[C@H](C(=O)OC(C)(C)C)[C@@H](C)OC(C)(C)C)c1 [Example 57, tert-Butyl O-tert-butyl-N-[3-({[3-methyl-5-(quinoxalin-2-ylamino)-1,2-thiazol-4 yl]carbonyl}amino)-benzoyl]threoninate]
IC50 [1]: 340 nM
IC50 ([2]; Homo sapiens, HeLa): 1200 nM
